In brackets after ≈: the same amount, converted by molar mass. Activity calls are given as the source filed them. No cut-off for these calls is given here.
Tests used:
[1] = tested on: Hepatitis C virus; assay: Antiviral activity against HCV in human Huh5-2 cells assessed as inhibition of HCV subgenomic replication; format: functional, organism-based, Hepacivirus hominis; conditions: Huh-5-2
[2] = Cytotoxicity against human Huh5-2 cells by MTS assay; format: cell-based, Huh-5-2
[3] = Inhibition of HCV recombinant NS3 helicase; parameters: species or system Hepacivirus hominis
[4] = tested on: Hepacivirus hominis; assay: Inhibition of HCV recombinant NS3 helicase at 100 uM

| EC50 [1] [µg/mL] | IC50 [3] [nM] | Activity [4] | Compound | CC50 [2] [µg/mL] |
| --- | --- | --- | --- | --- |
| 3 (≈ 9.19 µM) | 260 | – | COC(=O)c1ccc(CNC(=O)c2ccc(/C=C/C(C)=O)[nH]2)cc1 | 10 (≈ 30.6 µM) |
| – | – | inactive | COC(=O)c1ccc(CNC(=O)c2cc(/C=C/C(C)=O)c[nH]2)cc1 | – |

Reference: ChEMBL document CHEMBL1136909, “Discovery of a novel HCV helicase inhibitor by a de novo drug design approach” (Bioorg Med Chem Lett, 2009)
